Patent US20250163484A1, “Methods for Incorporating Azido Groups in Bacterial Capsular Polysaccharides” (PFIZER INC., priority 2022, published 2025)
“And” between values parts separate entries of the source, which are not always exact repeats. Equal values may be shown once. Read-outs that look alike come from different tables or passages of the source.

What was measured:
S. pneumoniae T14 [1] = assay type: cell-based, Streptococcus pneumoniae serotype 14; conditions: for Polysacch. Titer: production medium + Galactose (30 g/L) + 2AzGlc (0.25 mM)
Procedure: FIGS. 1A-1D. Screen for azido sugar incorporation into S. pneumoniae T14 capsule polysaccharide. […] Bacteria were grown until the ΔOD600≥0 for >30 minutes, then lysed with 0.1% NLS for 30 minutes. Growth was measured offline using a spectrophotometer blanked with PBS at 600 nm. (FIG. 1A) azido incorporation into polysaccharide was then quantified via fluorescent labeling (FL) with normalization to refractive index (RI). MaxOD and End Of Fermentation time (EOF) are provided in (FIG. 1B) and (FIG. 1C), respectively. Polysaccharide was extracted using EtOH and CaCl2 and analyzed via SEC-RI for (FIG. 1D) polysaccharide titer. n=1-4, error bars=+/−StDev.
FIGS. 2A-2D Impact of 2AzGlcAc4 concentration on S. pneumoniae T14 growth and poly production in production medium supplemented with Galactose (30 g/L). […] (FIG. 2A) Growth was measured offline using a spectrophotometer blanked with PBS at 600 nm. At the end of fermentation, cultures were lysed with 0.1% NLS for 30 min. and polysaccharide was extracted via EtOH/CaCl2) precipitation. Polysaccharide titer (FIG. 2B) and size (FIG. 2C) were measured via SEC-RI and SEC-MALS, respectively. (FIG. 2D) azido incorporation was then quantified via fluorescent labeling (FL) and normalized to the refractive index (RI). n=3, error bars=+/−StDev.
FIGS. 3A-3E Impact of 2AzGlc concentration on S. pneumoniae T14 growth and polysaccharide production in production medium supplemented with Galactose (30 g/L). […] (FIG. 3A) Growth was measured offline using a spectrophotometer blanked with PBS at 600 nm. Cultures were lysed with 0.1% NLS for 30 min. and polysaccharide was extracted via EtOH/CaCl2) precipitation. Polysaccharide (FIG. 3B/FIG. 3C) titer and (FIG. 3D) size were measured via SEC-RI and SEC-MALS, respectively. (FIG. 3E) azido incorporation was then quantified via fluorescent labeling (FL) and normalized to the refractive index (RI). n=3, error bars=+/−StDev.
We tested the impact of 2AzGlc concentration on S. pneumoniae T14 growth, polysaccharide production, and azido incorporation by growing the bacteria in production media (supplemented with Glucose (dextrose, 30 g/L)) with various concentrations of 2AzGlc (0, 1, 5, 10, 20, 40, and 60 mM).

S. pneumoniae T14 [2] = experiment: Growth of S. pneumoniae T14 in fermentation with azido sugar (OD600); assay type: cell-based, Streptococcus pneumoniae serotype 14; conditions: for MaxOD600 nm: production media + 2AzGlc (10 mM)
[3] = 2AzGlc titration 0-60 mM, production media + Glucose (dextrose, 30 g/L)
[4] = 2AzGlc titration, production media + Glucose (dextrose, 30 g/L)
[5] = 2AzGlc titration, production medium + Galactose (30 g/L)
[6] = azido feed DOE: Gal 30 g/L, initial 2AzGlc 0 mM, 2AzGlc feed stock 4 mM, pH 7.33, 300 rpm
[7] = azido feed DOE: Gal 30 g/L, initial 2AzGlc 0 mM, 2AzGlc feed stock 6.5 mM, pH 7.33, 300 rpm
[8] = azido feed DOE: Gal 30 g/L, initial 2AzGlc 0.1 mM, 2AzGlc feed stock 4 mM, pH 7.33, 300 rpm
[9] = azido feed DOE: Gal 30 g/L, initial 2AzGlc 0.1 mM, 2AzGlc feed stock 6.5 mM, pH 7.33, 300 rpm
[10] = azido feed DOE: Gal 40 g/L, initial 2AzGlc 0 mM, 2AzGlc feed stock 4 mM, pH 7.33, 300 rpm
[11] = azido feed DOE: Gal 40 g/L, initial 2AzGlc 0 mM, 2AzGlc feed stock 6.5 mM, pH 7.33, 300 rpm
[12] = azido feed DOE: Gal 40 g/L, initial 2AzGlc 0.1 mM, 2AzGlc feed stock 4 mM, pH 7.33, 300 rpm
[13] = azido feed DOE: Gal 40 g/L, initial 2AzGlc 0.1 mM, 2AzGlc feed stock 6.5 mM, pH 7.33, 300 rpm
[14] = azido sugar 20 mM without DMSO, production medium + Galactose (30 g/L)
[15] = initial galactose 40 g/L, initial 2AzGlc 0.1 mM, 4.0 mM 2AzGlc feed stock
[16] = screen, azido sugar 1 mM, only in production medium + Galactose

[N-]=[N+]=N[C@@H](C=O)[C@@H](O)[C@H](O)[C@H](O)CO [2AzGlc, 2-Azido-2-deoxy-D-glucose]
max size reduction (S. pneumoniae T14 [1]; [3]): 78% | max titer loss (S. pneumoniae T14 [1]; [3]): 56% | concentration at which negative effect on poly production started (S. pneumoniae T14 [1]; [4]): 1 mM | polysaccharide titers with increasing 2AzGlc concentrations (S. pneumoniae T14 [1]; [5]): negatively impacted | Poly Titer (S. pneumoniae T14 [1]; [6]): 0.2358 mg/mL and 0.22 mg/mL | Poly Titer (S. pneumoniae T14 [1]; [7]): 0.1846 mg/mL and 0.189 mg/mL | Poly Titer (S. pneumoniae T14 [1]; [8]): 0.1856 mg/mL and 0.1876 mg/mL | Poly Titer (S. pneumoniae T14 [1]; [9]): 0.1266 mg/mL and 0.137 mg/mL | Poly Titer (S. pneumoniae T14 [1]; [10]): 0.2204 mg/mL and 0.1796 mg/mL | Poly Titer (S. pneumoniae T14 [1]; [11]): 0.1826 mg/mL and 0.1536 mg/mL | Poly Titer (S. pneumoniae T14 [1]; [12]): 0.1882 mg/mL and 0.1748 mg/mL | Poly Titer (S. pneumoniae T14 [1]; [13]): 0.1251 mg/mL and 0.1011 mg/mL | polysaccharide production (S. pneumoniae T14 [1]; [14]): strongly inhibited | polysaccharide titer (average) (S. pneumoniae T14 [1]; [15]): 0.1815 mg/mL | Poly Titer (S. pneumoniae T14 [1]; production media + 2AzGlc (10 mM), pH 6.33, agitation 100 rpm): 0.39 mg/mL | Poly Titer (S. pneumoniae T14 [1]; production media + 2AzGlc (10 mM), pH 6.33, agitation 300 rpm): 0.44 mg/mL and 0.42 mg/mL | Poly Titer (S. pneumoniae T14 [1]; production media + 2AzGlc (10 mM), pH 6.66, agitation 200 rpm): 0.52 mg/mL and 0.47 mg/mL | Poly Titer (S. pneumoniae T14 [1]; production media + 2AzGlc (10 mM), pH 7, agitation 100 rpm): 0.40 mg/mL and 0.41 mg/mL | Poly Titer (S. pneumoniae T14 [1]; production media + 2AzGlc (10 mM), pH 7, agitation 300 rpm): 0.43 mg/mL and 0.48 mg/mL | Poly Titer (S. pneumoniae T14 [1]; production media + 2AzGlc (10 mM), pH 7.33, agitation 100 rpm): 0.36 mg/mL and 0.37 mg/mL | Poly Titer (S. pneumoniae T14 [1]; production media + 2AzGlc (10 mM), pH 7.33, agitation 200 rpm): 0.41 mg/mL and 0.44 mg/mL | Poly Titer (S. pneumoniae T14 [1]; production media + 2AzGlc (10 mM), pH 7.33, agitation 300 rpm): 0.41 mg/mL | Titer (S. pneumoniae T14 [1]; production media + Glucose (dextrose, 30 g/L), media pH 7, 2AzGlc 1 mM): 0.63 mg/mL | Titer (S. pneumoniae T14 [1]; production media + Glucose (dextrose, 30 g/L), media pH 7, 2AzGlc 5 mM): 0.53 mg/mL | Titer (S. pneumoniae T14 [1]; production media + Glucose (dextrose, 30 g/L), media pH 7, 2AzGlc 10 mM): 0.43 mg/mL | Titer (S. pneumoniae T14 [1]; production media + Glucose (dextrose, 30 g/L), media pH 7, 2AzGlc 20 mM): 0.32 mg/mL | Titer (S. pneumoniae T14 [1]; production media + Glucose (dextrose, 30 g/L), media pH 7.33, 2AzGlc 20 mM): 0.3 mg/mL | Titer (S. pneumoniae T14 [1]; production media + Glucose (dextrose, 30 g/L), media pH 7.33, 2AzGlc 40 mM): 0.28 mg/mL | Titer (S. pneumoniae T14 [1]; production media + Glucose (dextrose, 30 g/L), media pH 7.33, 2AzGlc 60 mM): 0.28 mg/mL | Polysacch. Titer (S. pneumoniae T14 [1]; pH 6.33, agitation 100 rpm): 0.195 mg/mL and 0.193 mg/mL | Polysacch. Titer (S. pneumoniae T14 [1]; pH 6.33, agitation 200 rpm): 0.171 mg/mL | Polysacch. Titer (S. pneumoniae T14 [1]; pH 6.33, agitation 300 rpm): 0.087 mg/mL and 0.149 mg/mL | Polysacch. Titer (S. pneumoniae T14 [1]; pH 6.66, agitation 100 rpm): 0.247 mg/mL | Polysacch. Titer (S. pneumoniae T14 [1]; pH 6.66, agitation 300 rpm): 0.227 mg/mL | Polysacch. Titer (S. pneumoniae T14 [1]; pH 7, agitation 200 rpm): 0.269 mg/mL | Polysacch. Titer (S. pneumoniae T14 [1]; pH 7.33, agitation 100 rpm): 0.235 mg/mL and 0.216 mg/mL | Polysacch. Titer (S. pneumoniae T14 [1]; pH 7.33, agitation 300 rpm): 0.228 mg/mL and 0.211 mg/mL | polysaccharide titer (S. pneumoniae T14 [1]; [16]): reduced | rate of galactose consumption, of the batch model (S. pneumoniae T14 [2]; 2AzGlc addition, production medium + Galactose (30 g/L)): ~70% | concentration at which negative effect on growth started (S. pneumoniae T14 [2]; [4]): 20 mM | growth with increasing 2AzGlc concentrations (S. pneumoniae T14 [2]; [5]): negatively impacted | MaxOD (S. pneumoniae T14 [2]; [6]): 9.78 and 9.56 | MaxOD (S. pneumoniae T14 [2]; [7]): 8.74 and 8.32 | MaxOD (S. pneumoniae T14 [2]; [8]): 8.96 and 8.13 | MaxOD (S. pneumoniae T14 [2]; [9]): 5.76 and 5.65 | MaxOD (S. pneumoniae T14 [2]; [10]): 9.78 and 7.39 | MaxOD (S. pneumoniae T14 [2]; [11]): 8.44 and 6.64 | MaxOD (S. pneumoniae T14 [2]; [12]): 8.53 and 8.4 | MaxOD (S. pneumoniae T14 [2]; [13]): 4.53 and 3.71 | growth (S. pneumoniae T14 [2]; [14]): strongly inhibited | OD600 nm at which growth stopped (S. pneumoniae T14 [2]; fed-batch, initial galactose 5.0 g/L, 0.25 mM 2AzGlc, regardless of feed rate): 3.0 | maximum OD600 nm (average) (S. pneumoniae T14 [2]; [15]): 8.5 | MaxOD600 nm (S. pneumoniae T14 [2]; pH 6.66, agitation 200 rpm): 11.7 | MaxOD600 nm (S. pneumoniae T14 [2]; pH 7, agitation 300 rpm): 11.3 and 12.9 | MaxOD600 nm (S. pneumoniae T14 [2]; pH 7.33, agitation 300 rpm): 10.5 and 10.4 | MaxOD (S. pneumoniae T14 [2]; production medium + Galactose (30 g/L) + 2AzGlc (0.25 mM), pH 6.33, agitation 100 rpm): 6.98 and 6.76 | MaxOD (S. pneumoniae T14 [2]; production medium + Galactose (30 g/L) + 2AzGlc (0.25 mM), pH 6.33, agitation 200 rpm): 6.81 | MaxOD (S. pneumoniae T14 [2]; production medium + Galactose (30 g/L) + 2AzGlc (0.25 mM), pH 6.33, agitation 300 rpm): 6.05 and 5.89 | MaxOD (S. pneumoniae T14 [2]; production medium + Galactose (30 g/L) + 2AzGlc (0.25 mM), pH 6.66, agitation 100 rpm): 8.96 | MaxOD (S. pneumoniae T14 [2]; production medium + Galactose (30 g/L) + 2AzGlc (0.25 mM), pH 6.66, agitation 300 rpm): 9.1 | MaxOD (S. pneumoniae T14 [2]; production medium + Galactose (30 g/L) + 2AzGlc (0.25 mM), pH 7, agitation 200 rpm): 9.38 | MaxOD (S. pneumoniae T14 [2]; production medium + Galactose (30 g/L) + 2AzGlc (0.25 mM), pH 7.33, agitation 100 rpm): 8.43 and 8.23 | MaxOD (S. pneumoniae T14 [2]; production medium + Galactose (30 g/L) + 2AzGlc (0.25 mM), pH 7.33, agitation 300 rpm): 8.54 and 8.26 | maximum OD (S. pneumoniae T14 [2]; [16]): reduced
